Measured values taken from paper PMC12084297, “Cytoplasmic connexin43-microtubule interactions promote glioblastoma stem-like cell maintenance and tumorigenicity” (Cell Death & Disease, 2025).

How the values were obtained:
VTC-034 GSCs [1] = assay: Gliosphere formation assay, VTC-034 GSCs; format: cell-based, human; conditions: VTC-034, 10, 50 or 100 μM every other day, 2 weeks
Experimental: (§1) GSCs and PDX GBM22 cells were plated as single cell suspension in low-attachment 96-well plates (GSCs: 100–500 cells per well; GBM22 cells: 500–2000 cells per well), using methods similar to those reported previously. Cells were then treated with peptides every other day. 2 weeks later, gliospheres were observed using phase contrast microscopy on a Revolve microscope (Echo Laboratories). The number of gliospheres was then determined, while the gliosphere size was assessed by diameter measurement. To evaluate stem cell frequency in GSCs, gliosphere formation assay was performed with limiting cell dilutions with cells plated at varying densities in low-attachment 96-well plates. Cells were treated with peptides every other day, and after 2 weeks, gliosphere-positive wells were observed and scored using phase contrast microscopy on a Revolve microscope. The stem cell frequency was analyzed using the online data analysis program ELDA (Extreme Limiting Dilution Analysis).

VTC-034 GSCs [2] = assay: Limiting dilution analysis (ELDA), VTC-034 GSCs; format: cell-based, human; conditions: VTC-034, 100 μM every other day, 2 weeks; compared to JM2-scrambled or control
Experimental: as §1
All quantification was performed on experiments repeated at least three times. Statistical analysis was conducted with GraphPad Prism (GraphPad Software). Data were analyzed for significance using Student’s t test, one-way ANOVA with Tukey’s multiple comparisons test, and presented as mean ± SD. […] Statistical significance between experimental groups was determined using chi-square (χ²) tests within the ELDA framework. […]

Notch1 mRNA = Notch1 mRNA by RT-qPCR, VTC-037 GSCs; format: cell-based, human; conditions: 50 μM, 24 h
Experimental: RNA was extracted using the PureLink^TM RNA mini extraction kit (Thermo Fisher) and on-column DNA digestion was completed using PureLink^TM DNase according to the manufacturer’s instructions. RNA was reverse transcribed to generate cDNA using the iScript^TM Reverse Transcription SuperMix for RT-qPCR kit (Bio-Rad Laboratories). Real-time PCR was performed using the SYBR select Master Mix for CFX (Thermo Fisher) in hard-shell 96-well PCR plates (Bio-Rad Laboratories) on a CFX Connect Real Time System (Bio-Rad Laboratories). Primer sequences used were: hNOTCH1_Fwd: 5’-CGCACAAGGTGTCTTCCAG-3’; hNOTCH1_Rev: 5’-CGGCGTGTGAGTTGATGA-3’; hHES1_Fwd: 5’-GGCTGGAGAGGCGGCTAA-3’; hHES1_Rev: 5’-[…]-3’; hHEY1_Fwd: 5’-[…]-3’; hHEY1_Rev: 5’-[…]-3’.

VTC-037 GSCs [3] = assay: Peptide uptake by confocal Z-stack with WGA, VTC-037 GSCs; format: in vitro ADME, human; conditions: 50 μM, 24 h, WGA membrane label
VTC-037 GSCs [4] = assay: MTS viability, VTC-037 GSCs; format: cell-based, human; conditions: 4 days
Experimental: Cells were plated in 96-well plates (2000–5000 cells per well) and treated the following day with TMZ (10, 50, or 100 μM), antennapedia, JM2-scrambled, or JM2 (10, 50, or 100 μM). After 4 days, cell viability was monitored following addition of MTS reagent (Promega) according to manufacturer’s instructions. The absorbance at 490 nm was measured using a SpectraMax i3 or iD3 microplate reader (Molecular Devices). For the caspase 3/7 activity assay, cells were plated in 96-well plates (2000 cells per well) and treated with TMZ or peptides as described above. The activity of caspase 3/7 was measured after 48 h using the Caspase-Glo® 3/7 assay (Promega) following the manufacturer’s instructions. Fold change of caspase 3/7 activity was defined as the ratio of caspase 3/7 luminescence in treated cells compared to controls.

VFFKGVKDRVKGRSD [JM2]
GSC-dependent gliosphere formation (VTC-034 GSCs [1]): inhibits VTC-001, VTC-034, and VTC-037 GSC-dependent gliosphere formation in a dose-dependent manner | Gliosphere size (diameter) (VTC-034 GSCs [1]; n = 4): significant decrease in gliosphere size | Gliosphere number (VTC-034 GSCs [1]; n = 6): significant decrease in gliosphere size as assessed by diameter measurement (Fig. 6B), and number | GSC frequency / self-renewal (limiting dilution) (VTC-034 GSCs [2]): significant decrease in VTC-001, VTC-034, and VTC-037 GSC frequency | Notch1 mRNA level (Notch1 mRNA): not affected at the transcription level | Peptide enrichment within cells (Z-stack 3D projection) (VTC-037 GSCs [3]): enrichment of JM2 (red) within cells | GSC viability with JM2 alone in combination experiment (MTS) (VTC-037 GSCs [4]; VTC-037 adherent GSCs, 100 μM): significantly decreased GSC viability | GSC survival (MTS) (VTC-037 GSCs [4]; VTC-037 adherent GSCs, 10, 50 or 100 μM): significantly decreased VTC-001, VTC-034, and VTC-037 GSC survival when cultured as adherent cells in a dose-dependent manner
